In PubChem BioAssay (NCI):
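Values below derive from 48-hour exposures of cells grown in 96-well plates, with endpoints linearly interpolated between the two concentrations bracketing the appropriate inhibition level. Abbreviation: GI50, concentration required for 50% inhibition of growth. The concentration for full growth arrest is given as TGI.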 Where a SMILES comes first, the peptide text is derived from it. The star is where a group is joined. Cbz = O=C(OCc1ccccc1)*; CH2Cl = ClC*

test system: A549 NSCLC; test: NCI anticancer screen, dose series, 48 h

Point of comparison: Cn1cc(C2=C(c3cn(CCCCO)c4ccccc34)C(=O)NC2=O)c2ccccc21, GI50 7.97 µM. Against it:
- O=C1C=CC(=O)c2cc3cc(CBr)ccc3cc21 — within 1.5-fold, 9.07 µM
- CS(=O)(=O)CCNCc1nc(-c2ccc3ncnc(Nc4ccc(OCc5cccc(C(F)(F)F)c5)cc4)c3c2)cs1 — higher, > 22 µM
- CCOC(=O)C(Cc1ccc(CCCC(=O)NCCC(=O)Nc2ccc3nc(C)sc3c2)cc1)C(=O)OCC — 7.4-fold higher, 59.1 µM
- NCCNc1c2c(c(NCCN)c3[nH]ccc13)C(=O)c1ccccc1C2=O — 13-fold lower, 0.63 µM
- CCOC(=O)Nc1ccc(-c2nc(-c3cccc(OCCN4CCOCC4)c3)c(-c3ccnc(Br)c3)[nH]2)cc1 — 2.3-fold lower, 3.47 µM
- COc1ccc(-c2nn(-c3ccc(NC(=O)c4ccc(Cl)c(Cl)c4)cc3)cc2-c2ccncc2)cc1Cl — higher, > 12.4 µM
- C[C@@H]1CC[C@@H]2[C@@H]1[C@H](OC(=O)/C=C/c1ccccc1)[C@]1(C3CCCCC3)C[C@@H](OC(=O)CO)[C@@]2(C)O1 — 2-fold lower, 4.03 µM
- CCCN1C(=O)N(CCC)C2C1NC(=S)N2/N=C/C=C/c1ccccc1OC (centres undefined) — 9.2-fold lower, 0.868 µM
- CCSc1ncnc2c1ncn2C1OC(CO)C(O)C1O (centres undefined) — 10-fold lower, 0.777 µM
- CC[C@H]1[C@@H]2C=C[C@@H]3[C@H]4C/C=C\C(=O)NCCC[C@@H]5NC(=O)/C(=C(O)/C=C/[C@@H]4C[C@@H]3[C@H]2C[C@H]1C)C5=O — 4-fold lower, 2 µM
- CN1C(=O)N(C)C2C1NN=c1s/c(=C\c3ccc(Cl)cc3Cl)c(=O)n12 (centres undefined) — 33-fold lower, 0.243 µM
- Cc1ccc(NC(=O)CC2CC2)cc1-c1ccc(C(=O)NCC2CC2)cc1 — higher, > 25 µM
- CNCC#Cc1c(F)ccc2c1/C(=C/c1[nH]ccc1OC)C(=O)N2 — 62-fold lower, 0.129 µM

Point of comparison: CC(C)CC(NC(=O)OCc1ccccc1)C(=O)NC(Cc1ccccc1)C(=O)CCl (stereo not drawn) (Cbz-Leu-Phe-CH2Cl; configuration not given here), TGI 39.4 µM. Against it:
- CS(=O)(=O)CCNCc1nc(-c2ccc3ncnc(Nc4ccc(OCc5cccc(C(F)(F)F)c5)cc4)c3c2)cs1 — not separable, > 25 µM
- CCOC(=O)C(Cc1ccc(CCCC(=O)NCCC(=O)Nc2ccc3nc(C)sc3c2)cc1)C(=O)OCC — higher, > 100 µM
- NCCNc1c2c(c(NCCN)c3[nH]ccc13)C(=O)c1ccccc1C2=O — 16-fold lower, 2.53 µM
- CCOC(=O)Nc1ccc(-c2nc(-c3cccc(OCCN4CCOCC4)c3)c(-c3ccnc(Br)c3)[nH]2)cc1 — higher, > 100 µM
- COc1ccc(-c2nn(-c3ccc(NC(=O)c4ccc(Cl)c(Cl)c4)cc3)cc2-c2ccncc2)cc1Cl — higher, > 50 µM
- C[C@@H]1CC[C@@H]2[C@@H]1[C@H](OC(=O)/C=C/c1ccccc1)[C@]1(C3CCCCC3)C[C@@H](OC(=O)CO)[C@@]2(C)O1 — 2.8-fold lower, 14.1 µM
- CCCN1C(=O)N(CCC)C2C1NC(=S)N2/N=C/C=C/c1ccccc1OC (centres undefined) — higher, > 100 µM
- COc1cc2c(c(OC)c1OC)-c1ccc(SC)c(=O)cc1C(NC=O)CC2 (centres undefined) — higher, > 83.4 µM
- CCSc1ncnc2c1ncn2C1OC(CO)C(O)C1O (centres undefined) — higher, > 60.2 µM
- CC[C@H]1[C@@H]2C=C[C@@H]3[C@H]4C/C=C\C(=O)NCCC[C@@H]5NC(=O)/C(=C(O)/C=C/[C@@H]4C[C@@H]3[C@H]2C[C@H]1C)C5=O — 9.9-fold lower, 3.99 µM
- CN1C(=O)N(C)C2C1NN=c1s/c(=C\c3ccc(Cl)cc3Cl)c(=O)n12 (centres undefined) — higher, > 100 µM
- Cc1ccc(NC(=O)CC2CC2)cc1-c1ccc(C(=O)NCC2CC2)cc1 — not separable, > 25 µM
- CNCC#Cc1c(F)ccc2c1/C(=C/c1[nH]ccc1OC)C(=O)N2 — 15-fold lower, 2.71 µM
- Cn1cc(C2=C(c3cn(CCCCO)c4ccccc34)C(=O)NC2=O)c2ccccc21 — not separable, > 25 µM

test system: 786-0 renal; test: NCI anticancer screen, dose series, 48 h

Point of comparison: CCSc1ncnc2c1ncn2C1OC(CO)C(O)C1O (centres undefined), GI50 0.449 µM. Against it:
- O=C1C=CC(=O)c2cc3cc(CBr)ccc3cc21 — 5.1-fold higher, 2.28 µM
- CS(=O)(=O)CCNCc1nc(-c2ccc3ncnc(Nc4ccc(OCc5cccc(C(F)(F)F)c5)cc4)c3c2)cs1 — higher, > 16.5 µM
- CCOC(=O)C(Cc1ccc(CCCC(=O)NCCC(=O)Nc2ccc3nc(C)sc3c2)cc1)C(=O)OCC — higher, > 77.9 µM
- NCCNc1c2c(c(NCCN)c3[nH]ccc13)C(=O)c1ccccc1C2=O — 2-fold lower, 0.224 µM
- CCOC(=O)Nc1ccc(-c2nc(-c3cccc(OCCN4CCOCC4)c3)c(-c3ccnc(Br)c3)[nH]2)cc1 — 3.6-fold higher, 1.6 µM
- COc1ccc(-c2nn(-c3ccc(NC(=O)c4ccc(Cl)c(Cl)c4)cc3)cc2-c2ccncc2)cc1Cl — 2.2-fold higher, 1.01 µM
- C[C@@H]1CC[C@@H]2[C@@H]1[C@H](OC(=O)/C=C/c1ccccc1)[C@]1(C3CCCCC3)C[C@@H](OC(=O)CO)[C@@]2(C)O1 — 2.6-fold higher, 1.17 µM
- CCCN1C(=O)N(CCC)C2C1NC(=S)N2/N=C/C=C/c1ccccc1OC (centres undefined) — 1.7-fold higher, 0.779 µM
- CC[C@H]1[C@@H]2C=C[C@@H]3[C@H]4C/C=C\C(=O)NCCC[C@@H]5NC(=O)/C(=C(O)/C=C/[C@@H]4C[C@@H]3[C@H]2C[C@H]1C)C5=O — within 1.5-fold, 0.44 µM
- CN1C(=O)N(C)C2C1NN=c1s/c(=C\c3ccc(Cl)cc3Cl)c(=O)n12 (centres undefined) — 1.6-fold higher, 0.703 µM
- Cc1ccc(NC(=O)CC2CC2)cc1-c1ccc(C(=O)NCC2CC2)cc1 — higher, > 25 µM
- CNCC#Cc1c(F)ccc2c1/C(=C/c1[nH]ccc1OC)C(=O)N2 — 2.1-fold lower, 0.215 µM
- Cn1cc(C2=C(c3cn(CCCCO)c4ccccc34)C(=O)NC2=O)c2ccccc21 — 20-fold higher, 8.81 µM

Point of comparison: CC[C@H]1[C@@H]2C=C[C@@H]3[C@H]4C/C=C\C(=O)NCCC[C@@H]5NC(=O)/C(=C(O)/C=C/[C@@H]4C[C@@H]3[C@H]2C[C@H]1C)C5=O, TGI 1.59 µM. Against it:
- O=C1C=CC(=O)c2cc3cc(CBr)ccc3cc21 — 3.3-fold higher, 5.24 µM
- CS(=O)(=O)CCNCc1nc(-c2ccc3ncnc(Nc4ccc(OCc5cccc(C(F)(F)F)c5)cc4)c3c2)cs1 — higher, > 25 µM
- CC(C)CC(NC(=O)OCc1ccccc1)C(=O)NC(Cc1ccccc1)C(=O)CCl (stereo not drawn) (Cbz-Leu-Phe-CH2Cl; configuration not given here) — 1.9-fold higher, 3.08 µM
- CCOC(=O)C(Cc1ccc(CCCC(=O)NCCC(=O)Nc2ccc3nc(C)sc3c2)cc1)C(=O)OCC — higher, > 100 µM
- NCCNc1c2c(c(NCCN)c3[nH]ccc13)C(=O)c1ccccc1C2=O — 1.5-fold lower, 1.04 µM
- CCOC(=O)Nc1ccc(-c2nc(-c3cccc(OCCN4CCOCC4)c3)c(-c3ccnc(Br)c3)[nH]2)cc1 — 2.6-fold higher, 4.12 µM
- COc1ccc(-c2nn(-c3ccc(NC(=O)c4ccc(Cl)c(Cl)c4)cc3)cc2-c2ccncc2)cc1Cl — 1.6-fold higher, 2.53 µM
- C[C@@H]1CC[C@@H]2[C@@H]1[C@H](OC(=O)/C=C/c1ccccc1)[C@]1(C3CCCCC3)C[C@@H](OC(=O)CO)[C@@]2(C)O1 — 1.9-fold higher, 3.07 µM
- CCCN1C(=O)N(CCC)C2C1NC(=S)N2/N=C/C=C/c1ccccc1OC (centres undefined) — higher, > 68.8 µM
- COc1cc2c(c(OC)c1OC)-c1ccc(SC)c(=O)cc1C(NC=O)CC2 (centres undefined) — higher, > 100 µM
- CCSc1ncnc2c1ncn2C1OC(CO)C(O)C1O (centres undefined) — higher, > 100 µM
- CN1C(=O)N(C)C2C1NN=c1s/c(=C\c3ccc(Cl)cc3Cl)c(=O)n12 (centres undefined) — higher, > 48.8 µM
- Cc1ccc(NC(=O)CC2CC2)cc1-c1ccc(C(=O)NCC2CC2)cc1 — higher, > 25 µM
- CNCC#Cc1c(F)ccc2c1/C(=C/c1[nH]ccc1OC)C(=O)N2 — 2.1-fold higher, 3.27 µM
- Cn1cc(C2=C(c3cn(CCCCO)c4ccccc34)C(=O)NC2=O)c2ccccc21 — higher, > 25 µM

test system: SNB-75 CNS; test: NCI anticancer screen, dose series, 48 h

Point of comparison: C[C@@H]1CC[C@@H]2[C@@H]1[C@H](OC(=O)/C=C/c1ccccc1)[C@]1(C3CCCCC3)C[C@@H](OC(=O)CO)[C@@]2(C)O1, GI50 1.09 µM. Against it:
- O=C1C=CC(=O)c2cc3cc(CBr)ccc3cc21 — 20-fold higher, 21.5 µM
- CS(=O)(=O)CCNCc1nc(-c2ccc3ncnc(Nc4ccc(OCc5cccc(C(F)(F)F)c5)cc4)c3c2)cs1 — 4.5-fold higher, 4.86 µM
- CCOC(=O)C(Cc1ccc(CCCC(=O)NCCC(=O)Nc2ccc3nc(C)sc3c2)cc1)C(=O)OCC — higher, > 52.1 µM
- NCCNc1c2c(c(NCCN)c3[nH]ccc13)C(=O)c1ccccc1C2=O — 3.4-fold lower, 0.317 µM
- CCOC(=O)Nc1ccc(-c2nc(-c3cccc(OCCN4CCOCC4)c3)c(-c3ccnc(Br)c3)[nH]2)cc1 — within 1.5-fold, 1.34 µM
- COc1ccc(-c2nn(-c3ccc(NC(=O)c4ccc(Cl)c(Cl)c4)cc3)cc2-c2ccncc2)cc1Cl — within 1.5-fold, 1.26 µM

Point of comparison: CC(C)CC(NC(=O)OCc1ccccc1)C(=O)NC(Cc1ccccc1)C(=O)CCl (stereo not drawn) (Cbz-Leu-Phe-CH2Cl; configuration not given here), TGI 9.32 µM. Against it:
- O=C1C=CC(=O)c2cc3cc(CBr)ccc3cc21 — 11-fold higher, 98.1 µM
- CS(=O)(=O)CCNCc1nc(-c2ccc3ncnc(Nc4ccc(OCc5cccc(C(F)(F)F)c5)cc4)c3c2)cs1 — 1.7-fold higher, 15.7 µM
- CCOC(=O)C(Cc1ccc(CCCC(=O)NCCC(=O)Nc2ccc3nc(C)sc3c2)cc1)C(=O)OCC — higher, > 100 µM
- NCCNc1c2c(c(NCCN)c3[nH]ccc13)C(=O)c1ccccc1C2=O — 9.9-fold lower, 0.945 µM
- CCOC(=O)Nc1ccc(-c2nc(-c3cccc(OCCN4CCOCC4)c3)c(-c3ccnc(Br)c3)[nH]2)cc1 — within 1.5-fold, 6.91 µM
- COc1ccc(-c2nn(-c3ccc(NC(=O)c4ccc(Cl)c(Cl)c4)cc3)cc2-c2ccncc2)cc1Cl — higher, > 50 µM
- C[C@@H]1CC[C@@H]2[C@@H]1[C@H](OC(=O)/C=C/c1ccccc1)[C@]1(C3CCCCC3)C[C@@H](OC(=O)CO)[C@@]2(C)O1 — 1.6-fold higher, 14.7 µM
